Values quoted from earlier work, collected in patent US20250151766A1, “SWEETENED COMPOSITION AND PREPARATION METHOD AND USE THEREOF” (GUILIN LAYN NATURAL INGREDIENTS CORP., priority 2022, published 2025).

Conditions: general statement in the description

Question: Which sweetness does the source give for O=C(CO)[C@@H](O)[C@H](O)[C@H](O)CO [fructose] here?
Answer: 1.5 ×
